Converted amounts (≈) assume the structure as drawn. “And” between values parts separate entries of the source, which are not always exact repeats. Identical values can stand only once. One block for each compound: values may come before it.
Key:
Experiment in all cases: ≥ marks a high value that may be exact or a test limit, other limits are often not marked, values filed in µg/mL are converted to µM
[1] = system: Trichophyton simii IP1063-74
[2] = system: Saccharomyces cerevisiae IP118079
[3] = system: Escherichia coli IP76-24
[4] = system: Candida albicans IP884-65
[5] = system: Aspergillus niger IP218-53
[6] = system: Nocardia brasiliensis IP16-80
[7] = system: Enterococcus faecalis IP103214
[8] = system: Aeromonas caviae IP67-16T
[9] = system: Staphylococcus aureus IP76-25
[10] = system: Cryptococcus neoformans IP960-67
[11] = system: Aspergillus fumigatus IP1025-70
[12] = system: Staphylococcus epidermidis ATCC 12228
[13] = system: Serratia marcescens
[14] = system: Pseudomonas aeruginosa
[15] = system: Staphylococcus hominis ATCC 29970
[16] = system: Bacillus subtilis ATCC 21332
[17] = system: Staphylococcus aureus
[18] = system: Enterobacter cloacae
[19] = system: Serratia marcescens ATCC 14041
[20] = system: Klebsiella pneumoniae
[21] = system: Staphylococcus aureus ATCC 29213
[22] = system: Klebsiella oxytoca
[23] = system: Staphylococcus epidermidis
[24] = system: Klebsiella aerogenes ATCC 49701
[25] = system: Acinetobacter baumannii
[26] = system: Enterococcus faecium
[27] = system: Enterococcus faecium ATCC 29212
[28] = system: Pseudomonas aeruginosa ATCC 15442
[29] = system: Escherichia coli ATCC 25922
[30] = system: Klebsiella aerogenes
[31] = system: Streptococcus agalactiae
[32] = system: Proteus mirabilis
[33] = system: Raoultella ornithinolytica ATCC 31898
[34] = system: Raoultella ornithinolytica
[35] = system: Klebsiella oxytoca ATCC 43086
[36] = system: Escherichia coli
[37] = system: Staphylococcus hominis
[38] = system: Stenotrophomonas maltophilia ATCC 13637
[39] = system: Klebsiella pneumoniae ATCC 700603
[40] = system: Acinetobacter baumannii ATCC 19606
[41] = system: Stenotrophomonas maltophilia
[42] = system: Enterobacter cloacae ATCC 13047
[43] = system: Proteus mirabilis ATCC 12453
[44] = system: Staphylococcus aureus FDA 209P
[45] = system: Escherichia coli NIHJ JC-2
[46] = system: Pseudomonas aeruginosa U-31
[47] = system: Bacillus subtilis PCI 219

MIC [1]: ≥ 70 µM
MIC [2]: 20 µM (≈ 27.2 µg/mL)
MIC [3]: 6 µM (≈ 8.15 µg/mL)
MIC [4]: ≥ 40 µM
MIC [5]: ≥ 90 µM
MIC [6]: ≥ 150 µM
MIC [7]: 6 µM (≈ 8.15 µg/mL)
MIC [8]: 6 µM (≈ 8.15 µg/mL)
MIC [9]: ≥ 150 µM
MIC [10]: 6 µM (≈ 8.15 µg/mL)
MIC [11]: ≥ 90 µM
Compound: CC[C@H](C)[C@H](NC(=O)CNC(=O)[C@H](CCCCN)NC(=O)[C@H](CC(C)C)NC(=O)[C@H](CCSC)NC(=O)[C@H](CC(N)=O)NC(=O)[C@H](CCCCN)NC(=O)[C@H](Cc1c[nH]c2ccccc12)NC(=O)[C@H](CC(C)C)NC(=O)[C@H](C)N)C(=O)NCC(=O)N[C@@H](CCCCN)C(N)=O [ALWKNMLKGIGK]

MIC [12]: > 52.9 µM
MIC [13]: ≥ 52.9 µM
MIC [14]: > 52.9 µM
MIC [15]: ≥ 52.9 µM
MIC [16]: 3.3 µM (≈ 7.99 µg/mL)
MIC [17]: > 52.9 µM
MIC [18]: 4.67 µM (≈ 11.3 µg/mL)
MIC [19]: ≥ 52.9 µM
MIC [20]: 2.34 µM (≈ 5.65 µg/mL)
MIC [21]: > 52.9 µM
MIC [22]: 3.3 µM (≈ 7.99 µg/mL)
MIC [23]: ≥ 52.9 µM
MIC [24]: 1.65 µM (≈ 4 µg/mL)
MIC [25]: ≥ 52.9 µM
MIC [26]: ≥ 37.4 µM
MIC [27]: 26.4 µM (≈ 63.9 µg/mL)
MIC [28]: ≥ 52.9 µM
MIC [29]: 2.34 µM and 1.6 µM
MIC [30]: 1.65 µM (≈ 4 µg/mL)
MIC [31]: ≥ 52.9 µM
MIC [32]: ≥ 52.9 µM
MIC [33]: 3.3 µM (≈ 7.99 µg/mL)
MIC [34]: 3.3 µM (≈ 7.99 µg/mL)
MIC [35]: 3.3 µM (≈ 7.99 µg/mL)
MIC [36]: 2.34 µM (≈ 5.65 µg/mL)
MIC [37]: ≥ 52.9 µM
MIC [38]: ≥ 52.9 µM
MIC [39]: 3.3 µM (≈ 7.99 µg/mL)
MIC [40]: > 52.9 µM
MIC [41]: ≥ 52.9 µM
MIC [42]: 3.3 µM (≈ 7.99 µg/mL)
MIC [43]: ≥ 52.9 µM
Compound: CC[C@H](C)[C@H](NC(=O)[C@@H](NC(=O)[C@@H]1CCCN1C(=O)[C@@H](NC(=O)[C@@H]1CCCN1C(=O)[C@H](CCCCN)NC(=O)[C@H](CCCCN)NC(=O)[C@H](CO)NC(=O)CN)C(C)C)[C@@H](C)CC)C(=O)N[C@@H](Cc1ccc(O)cc1)C(=O)N[C@H]1CSSC[C@@H](C(=O)N[C@@H](CCC(N)=O)C(=O)N[C@@H](CCCN=C(N)N)C(=O)N[C@@H](CCSC)C(=O)O)NC(=O)[C@H](CCCCN)NC(=O)CNC(=O)[C@H](CO)NC(=O)[C@H](CCCN=C(N)N)NC(=O)[C@H](CCCN=C(N)N)NC(=O)[C@H](CC(N)=O)NC1=O [GSKKPVPIIYCNRRSGKCQRM]

MIC [44]: ≥ 43 µM
MIC [45]: ≥ 43 µM
MIC [46]: ≥ 43 µM
MIC [47]: ≥ 43 µM
Compound: CC(C)C[C@H](NC(=O)[C@H](CCCCN)NC(=O)[C@H](CCCCN)NC(=O)[C@H](CCCCN)NC(=O)[C@H](CC(C)C)NC(=O)[C@H](CCCCN)NC(=O)[C@H](CCCCN)NC(=O)[C@H](Cc1c[nH]c2ccccc12)NC(=O)[C@H](CCCCN)NC(=O)[C@H](CCCCN)NC(=O)[C@H](CCCCN)NC(=O)[C@H](CC(C)C)NC(=O)[C@H](CCCCN)NC(=O)[C@H](CCCCN)NC(=O)[C@H](CC(C)C)NC(=O)[C@H](CCCCN)NC(=O)[C@@H](N)CCCCN)C(=O)N[C@@H](CCCCN)C(=O)O [KKLKKLKKKWKKLKKKLK]

— DBAASP
